In US12655174B2, “Adenosine A3 receptor agonists, preparation methods and uses thereof” (ZHEJIANG VIMGREEN PHARMACEUTICALS, LTD., priority 2020, dated 2026):

Assay: Pharmacokinetic test of compound in SD rat
Assay type: in vivo
Conditions: SD rats, intragastric administration (IG), cassette dosing
Experimental: Example 28: Pharmacokinetic Test of Compound in SD Rat
The animal species used in this experiment were SD rats. There were 3 animals per group. The rats were dosed in cassette format, i.e., multiple (1-6) different compounds were dosed simultaneously to the same group of the SD rats. The vehicle used for the drug was 5% DMSO+5% Solutl+90% ([…] methylcellulose M450), and the administration route was intragastric administration (IG).

AUC_D | SMILES
829.00 kg·ng·h/mL/mg | CNC(=O)[C@H]1O[C@@H](n2cnc3c(NCc4ccccc4)nc(-c4cncc(F)c4)nc32)[C@H](O)[C@@H]1O [compound 153, (2S,3S,4R,5R)-5-(6-(benzylamino)-2-(5-fluoropyridin-3-yl)-9H-purin-9-yl)-3,4-dihydroxyl-N-methyltetrahydrofuran-2-carboxamide]
602.00 kg·ng·h/mL/mg | CCOc1cncc(-c2nc(NCc3ccccc3)c3ncn([C@@H]4O[C@H](C(=O)NC)[C@@H](O)[C@H]4O)c3n2)c1 [compound 158, (2S,3S,4R,5R)-5-(6-(benzylamino)-2-(5-ethoxypyridin-3-yl)-9H-purin-9-yl)-3,4-dihydroxyl-N-methyltetrahydrofuran-2-carboxamide]
1156.15 kg·ng·h/mL/mg | [2H]C([2H])([2H])NC(=O)[C@H]1O[C@@H](n2cnc3c(NCc4cccc(C)c4)nc(-c4cncc(F)c4)nc32)[C@H](O)[C@@H]1O [compound 162, (2S,3S,4R,5R)-5-(2-(5-fluoropyridin-3-yl)-6-((3-methylbenzyl)amino)-9H-purin-9-yl)-3,4-dihydroxyl-N-(methyl-d3)-tetrahydrofuran-2-carboxamide]
845.57 kg·ng·h/mL/mg | [2H]C([2H])([2H])NC(=O)[C@H]1O[C@@H](n2cnc3c(NCc4cccc(C)c4)nc(-c4cncc(Cl)c4)nc32)[C@H](O)[C@@H]1O [compound 164, (2S,3S,4R,5R)-5-(6-(m-methylphenylmethylamino)-2-(5-chloropyridin-3-yl)-9H-purin-9-yl)-3,4-dihydroxyl-N-(methyl-d3)-tetrahydrofuran-2-formamide]
564.70 kg·ng·h/mL/mg | [2H]C([2H])([2H])NC(=O)[C@H]1O[C@@H](n2cnc3c(NCc4ccc(C(F)(F)F)cc4)nc(-c4cncc(Cl)c4)nc32)[C@H](O)[C@@H]1O [compound 165, (2S,3S,4R,5R)-5-(6-(4-(trifluoromethyl)benzylamino)-2-(5-chloropyridin-3-yl)-9H-purin-9-yl)-3,4-dihydroxyl-N-(methyl-d3)-tetrahydrofuran-2-formamide]
1551.15 kg·ng·h/mL/mg | [2H]C([2H])([2H])NC(=O)[C@H]1O[C@@H](n2cnc3c(NCc4ccc(Cl)cc4)nc(-c4cncc(Cl)c4)nc32)[C@H](O)[C@@H]1O [compound 168, (2S,3S,4R,5R)-5-(6-(4-chlorobenzylamino)-2-(5-chloropyridin-3-yl)-9H-purin-9-yl)-3,4-dihydroxyl-N-(methyl-d3)-tetrahydrofuran-2-formamide]
81.74 kg·ng·h/mL/mg | CNC(=O)[C@H]1O[C@@H](n2cnc3c(NCc4cccc(C(F)(F)F)c4)nc(-c4cncc(F)c4)nc32)[C@H](O)[C@@H]1O [compound 180, (2S,3S,4R,5R)-5-(6-(3-(trifluoromethyl)benzylamino)-2-(5-fluoropyridin-3-yl)-9H-purin-9-yl)-3,4-dihydroxyl-N-methyl-tetrahydrofuran-2-formamide]
72.67 kg·ng·h/mL/mg | CNC(=O)[C@H]1O[C@@H](n2cnc3c(NCc4cccc(C(F)(F)F)c4)nc(-c4cncc(OC)c4)nc32)[C@H](O)[C@@H]1O [compound 181, (2S,3S,4R,5R)-5-(6-(3-(trifluoromethyl)benzylamino)-2-(5-methoxypyridin-3-yl)-9/-purin-9-yl)-3,4-dihydroxyl-N-methyl-tetrahydrofuran-2-formamide]
138.00 kg·ng·h/mL/mg | [2H]C([2H])([2H])NC(=O)[C@H]1O[C@@H](n2cnc3c(NCC(F)(F)F)nc(-c4cncc(Cl)c4)nc32)[C@H](O)[C@@H]1O [compound 202]
1347.60 kg·ng·h/mL/mg | CNC(=O)[C@H]1O[C@@H](n2cnc3c(NCc4cccc(Cl)c4)nc(-c4cncc(Cl)c4)nc32)[C@H](O)[C@@H]1O [compound 209, (2S,3S,4R,5R)-5-(6-((3-chlorobenzyl))amino-2-(5-chloropyridin-3-yl)-9H-purin-9-yl)-3,4-dihydroxyl-N-methyltetrahydrofuran-2-carboxamide]
580.90 kg·ng·h/mL/mg | CNC(=O)[C@H]1O[C@@H](n2cnc3c(NCc4cccc(F)c4)nc(-c4cncc(Cl)c4)nc32)[C@H](O)[C@@H]1O [compound 210, (2S,3S,4R,5R)-5-(2-(5-chloropyridin-3-yl)-6-((3-fluorobenzyl))amino-9H-purin-9-yl)-3,4-dihydroxyl-N-methyltetrahydrofuran-2-carboxamide]
765.47 kg·ng·h/mL/mg | [2H]C([2H])([2H])NC(=O)[C@H]1O[C@@H](n2cnc3c(NCc4cc(Cl)ccn4)nc(-c4cncc(Cl)c4)nc32)[C@H](O)[C@@H]1O [compound 214]
785.90 kg·ng·h/mL/mg | [2H]C([2H])([2H])NC(=O)[C@H]1O[C@@H](n2cnc3c(NCc4cc(C)ccn4)nc(-c4cncc(Cl)c4)nc32)[C@H](O)[C@@H]1O [compound 215]
278.77 kg·ng·h/mL/mg | [2H]C([2H])([2H])NC(=O)[C@H]1O[C@@H](n2cnc3c(NCc4cccc(C#N)c4)nc(-c4cncc(Cl)c4)nc32)[C@H](O)[C@@H]1O [compound 221, (2S,3S,4R,5R)-5-(2-(5-chloropyridin-3-yl)-6-((3-cyanobenzyl)amino)-9H-purin-9-yl)-3,4-dihydroxyl-N-(methyl-d3)-tetrahydrofuran-2-carboxamide]
11356.86 kg·ng·h/mL/mg | [2H]C([2H])([2H])NC(=O)[C@H]1O[C@@H](n2cnc3c(NCc4cc(C)ccc4F)nc(-c4cncc(Cl)c4)nc32)[C@H](O)[C@@H]1O [compound 225, (2S,3S,4R,5R)-5-(2-(5-chloropyridin-3-yl)-6-((2-fluoro-5-methylbenzyl)amino)-9H-purin-9-yl)-3,4-dihydroxyl-N-(methyl-d3)-tetrahydrofuran-2-carboxamide]
1456.00 kg·ng·h/mL/mg | [2H]C([2H])([2H])NC(=O)[C@H]1O[C@@H](n2cnc3c(NCc4cccnc4)nc(-c4cncc(Cl)c4)nc32)[C@H](O)[C@@H]1O [compound 235, (2S,3S,4R,5R)-5-(2-(5-chloropyridin-3-yl)-6-(pyridin-3-ylmethylamino)-9H-purin-9-yl)-3,4-dihydroxyl-N-(methyl-d3)-tetrahydrofuran-2-carboxamide]
1024.58 kg·ng·h/mL/mg | [2H]C([2H])([2H])NC(=O)[C@H]1O[C@@H](n2cnc3c(NCc4cc(Cl)cc(Cl)c4)nc(-c4cncc(Cl)c4)nc32)[C@H](O)[C@@H]1O [compound 240, (2S,3S,4R,5R)-5-(2-(5-chloropyridin-3-yl)-6-(3,5-dichlorobenzylamino)-9H-purin-9-yl)-3,4-dihydroxyl-N-(methyl-d3)-tetrahydrofuran-2-carboxamide]
440.67 kg·ng·h/mL/mg | [2H]C([2H])([2H])NC(=O)[C@H]1O[C@@H](n2cnc3c(NCc4cc(F)cc(Cl)c4)nc(-c4cncc(Cl)c4)nc32)[C@H](O)[C@@H]1O [compound 241, (2S,3S,4R,5R)-5-(6-(3-chloro-5-fluorobenzylamino)-2-(5-chloropyridin-3-yl)-9H-purin-9-yl)-3,4-dihydroxyl-N-(methyl-d3)-tetrahydrofuran-2-carboxamide]
811.33 kg·ng·h/mL/mg | CCNC(=O)[C@H]1O[C@@H](n2cnc3c(NCc4ccccc4)nc(-c4cncc(Cl)c4)nc32)[C@H](O)[C@@H]1O [compound 242, (2S,3S,4R,5R)-5-(6-(benzylamino)-2-(5-chloropyridin-3-yl)-9H-purin-9-yl)-N-ethyl-3,4-dihydroxyltetrahydrofuran-2-carboxamide]
